Source: patent US7084323B1, “Stress-protected transgenic plants” (The General Hospital Corporation, priority 1996, dated 2006)

Experiments:
Assay type in all cases: cell-based
[1] = test system: stress-inducible HVA1 promoter; test: HVA1-SGFP expression in maize leaf protoplasts treated with Ca2+ ionophores; conditions: 1 mM Ca2+ alone or with 100 nM ionophore in incubation medium
Source text: The role of Ca^2+ as a second messenger in multiple stress responses was also studied. The effects of increased intracellular Ca^2+ on HVA1-SGFP expression in maize leaf protoplasts using Ca^2+ ionophore was examined using standard methods as described below (Knight et al., Nature 352:524, 1991; Schroeder and Thuleau, Plant Cell 3:555, 1991; Braam, Proc. Natl. Acad. Sci. U.S.A. 89:3213, 1992; McAinsh et al., Plant Cell 4:1113, 1992; Assmann, Ann. Rev. Cell Biol. 9:345, 1993; Poovaiah and Reddy, Crit. Rev. Plant Sci. 12:185, 1993; Trewavas and Knight, Plant Mol. Biol. 26:1329, 1994; Ward and Schroeder, Plant Cell 6:669, 1994; Bethke et al., in Plant Hormones, Davies, Ed., (Kluwer Academic 1995) pp. 298–317; Bush, Ann. Rev. Plant Physiol. Plant Mol. Biol. 46:95, 1995; Monroy and Dhindsa, Plant Cell 7:32, 1995; and Knight et al., Plant Cell 8:489, 1996).
Maize leaf protoplasts transfected with HVA1-SGFP (HVA) or UBI-SGFP (UBI) were treated with 1 mM Ca^2+, 1 mM Ca^2+/100 nM A23187, and 1 mM Ca^2+/100 nM ionomycin, respectively designated “C,” “A,” and “I” in FIG. 2. UBI-SGFP was constructed by inserting the UBI promoter from pAHC27 (Christensen et al., Plant Mol. Biol. 18:675, 1992) into the SGFP vector (Chiu et al., Curr. Biol. 6:225, 1996). […] About 10^5 protoplasts from each treatment were observed using a fluorescence microscope (Chiu et al., Curr. Biol. 6:225, 1996). […]

HVA1 promoter [2] = test: HVA1-LUC expression with constitutively active or null PP2C effector in maize leaf protoplasts; conditions: ABA treatment
Source text: To further support the idea that ATCDPK1 and ATCDPK1a are positive regulators in plant stress signal transduction, the effect of a specific and constitutively active Arabidopsis protein phosphatase 2C (PP2C) capable of abolishing ABA responses (Leung et al., Science 264:1448, 1994; Meyer et al., Science 264:1452, 1994; Armstrong et al., Proc. Natl. Acad. Sci. USA 92:9520, 1995) was examined as follows. Maize leaf protoplasts were electroporated with HVA1-LUC alone or with the effectors as indicated. […] The experiments with the constitutively active PP2C or the null PP2C were performed with two concentrations of plasmid DNA (+, 20 μg and ++, 60 μg) (FIG. 4C). LUC and GUS assays were performed with 2% of the cell lysates as described previously by Sheen (EMBO J. 12:3497, 1993; Jefferson, Plant Mol. Biol. Rep. 5:387, 1987; and Luehrsen et al., Meth. Enz. 216:397, 1992). Relative LUC activities from duplicated samples are shown. The experiment was repeated three times with similar results (FIG. 4C).

[3] = test system: stress-inducible HVA1 promoter; test: HVA1-SGFP reporter expression in maize leaf protoplasts under stress/ABA treatment
Source text: Responses to multiple stress treatments were monitored using green-fluorescent protein (GFP) as a vital reporter (Chiu et al. Curr. Biol. 6:225, 1996), using a single cell maize leaf protoplast system (Sheen, EMBO J 12:3497, 1993). A chimeric gene was generated by fusing the stress-inducible CDPK HVA1 promoter (Straub et al., Plant Mol. Biol. 26:617, 1994) to a synthetic GFP sequence (HVA1-SGFP) (Chiu et al. Curr. Biol. 6:225, 1996). The barley HVA1 promoter was obtained by PCR using barley genomic DNA and two primers: 5′[…]-3′ (SEQ ID NO: 17) and 5′-[…]-3′ (SEQ ID NO: 18). The HVA1 promoter and the SGFP were fused at the ATG NcoI site. The CDPK HVA1 gene has been reported to be activated by multiple stress signals in vegetative tissues (Straub et al., Plant Mol. Biol. 26:617, 1994). […]
Maize leaf protoplasts were electroporated with the plasmid DNA carrying HVA1-SGFP and divided (10^5 cells/ml per sample) for various treatments: constant light (15 μEm^−2S^−1) at 23° C. for sixteen hours (Control), 0° C. for four hours followed by twelve hours at 23° C. […] About 10^5 protoplasts from each treatment were observed using a fluorescence microscope as described by Chiu et al. (Curr. Biol. 6:225, 1996). […] About 50% of the protoplasts, showing green/yellow fluorescence after the induction, were transiently transformed. […]

HVA1 promoter [4] = test: HVA1-LUC reporter co-expression with constitutive PK constructs in maize leaf protoplasts; conditions: co-electroporated constitutive (truncated) PK construct, without ABA
Description: For quantitating the effect of various constitutive PKs on stress signaling, another chimeric gene with the HVA1 promoter and the luciferase coding sequence (Leuhrsen et al., Meth. Enz. 216:397, 1992) (HVA1-LUC) was generated. Co-expression experiments were performed by electroporating the reporter (HVA1-LUC) and the effector (35SC4PSK-PK-HA) plasmids together into maize leaf protoplasts as follows.
Maize leaf protoplasts were transfected with HVA1-LUC alone and incubated without (FIG. 3E, “C”) or with 100 μM ABA (FIG. 3E, “A”). HVA1-LUC was also co-electroporated with the PK constructs (1–8) shown in FIG. 3C and FIG. 3D, and incubated without ABA (FIG. 3E, “1–8”). Relative LUC activities from duplicated samples are shown. About 2% of the cell lysates were used for LUC (Luehrsen et al., Meth. Enz. 216:397, 1992) and GUS assays (Sheen, EMBO J. 12:3497, 1993; and Jefferson, Plant Mol. Biol. Rep. 5:387, 1987). The experiment was repeated three times with similar results.

CNc1ccc2oc(C[C@H]3O[C@@]4(CC[C@H]3C)O[C@H]([C@H](C)C(=O)c3ccc[nH]3)[C@H](C)C[C@H]4C)nc2c1C(=O)O [A23187]
expression of HVA1-GFP [1]: significantly increased

CC1=CC(=O)CC(C)(C)[C@@]1(O)/C=C/C(C)=C\C(=O)O [ABA, abscisic acid]
HVA1-LUC expression (HVA1 promoter [2]): activated | GFP expression from HVA1-SGFP ([3]; 1 μM ABA (data not shown)): visible | expression of GFP from HVA1-SGFP ([3]; 100 μM ABA for sixteen hours, fluorescence microscopy): enhanced

C[C@H](CCC(=O)O)C[C@H](C)C[C@H](C)C(=O)/C=C(\O)[C@H](C)C[C@H](C)C/C=C/[C@@H](C)[C@@H](O)[C@@H](C)[C@@H](O)C[C@@H]1CC[C@@](C)([C@H]2CC[C@@](C)([C@@H](C)O)O2)O1 [ionomycin]
expression of HVA1-GFP [1]: significantly increased

B1: ATCDPK1a: truncated constitutively active Arabidopsis CDPK PK domain, SEQ ID NO: 2 (protein, listed as Arabidopsis thaliana)
chain: MANQTQISDKYILGRELGRGEFGITYLCTDRETREALACKSISKRKLRTAVDVEDVRREVTIMSTLPEHPNVVKLKATYEDNETVHLVMELCEGGELFGRIVARGHYTERAAATVARTIAEVVRMCHVNGVMHRDLKPENFLFANKKENSALKAIDFGLSVLFKPGERFTEIVGSPYYMAPEVLKRNYGPEVDVWSAGVILYILLCGVPPFWAETEQGVALAILRGVLDFKRDPWSQISESAKSLVKQMLEPDSTKRLTAQQVLDHPWIQNAKK
LUC expression controlled by the HVA1 promoter (HVA1 promoter [4]): specifically activate
